Laboratory results as given in publication PMC12361511 (The EMBO Journal, 2025).

Experiments:
[1] = target: T1, PPP2R1A (Mus musculus, UniProt Q76MZ3); experiment: thermal shift (DSF, SYPRO Orange); assay type: binding; settings: 5 µM protein, 10 mM NaH2PO4 pH 6.0, 25 mM NaCl, 1 mM β-mercaptoethanol; destabilising
T1 construct: full length, C-terminal 6xHis, E. coli (BL-21 or Arctic Express), about 65 kDa, isolated subunit; 893-PAL is the native protein in mouse FL5.12 / mPCE cells

[2] = target: T2, KPNB1.1 (Homo sapiens, UniProt Q14974); experiment: thermal shift (DSF, SYPRO Orange); assay type: binding; settings: 5 µM protein, 10 mM NaH2PO4 pH 6.0, 25 mM NaCl, 1 mM β-mercaptoethanol; destabilising
T2 construct: amino acids 1-442 (N-terminal half), N-terminal 10xHis, codon-optimized, E. coli, about 44 kDa
T2 sequence (Q14974 1-442): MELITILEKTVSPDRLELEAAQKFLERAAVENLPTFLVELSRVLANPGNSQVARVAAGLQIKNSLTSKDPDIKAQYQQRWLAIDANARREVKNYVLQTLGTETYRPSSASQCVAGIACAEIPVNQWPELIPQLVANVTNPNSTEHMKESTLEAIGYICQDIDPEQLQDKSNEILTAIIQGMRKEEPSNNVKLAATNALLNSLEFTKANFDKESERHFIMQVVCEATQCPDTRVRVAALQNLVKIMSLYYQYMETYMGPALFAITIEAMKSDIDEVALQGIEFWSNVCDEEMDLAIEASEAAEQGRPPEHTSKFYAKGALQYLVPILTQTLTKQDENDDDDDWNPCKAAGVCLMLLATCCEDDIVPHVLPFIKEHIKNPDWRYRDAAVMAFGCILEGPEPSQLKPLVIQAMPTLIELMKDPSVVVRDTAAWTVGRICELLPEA

[3] = target: T1, PPP2R1A; experiment: thermal shift (DSF, SYPRO Orange); also CD; assay type: binding; settings: 5 µM protein, 10 mM NaH2PO4 pH 6.0, 25 mM NaCl, 1 mM β-mercaptoethanol; destabilising, reversible on dialysis
[4] = target: T2, KPNB1.1; experiment: thermal shift (DSF, SYPRO Orange); also CD; assay type: binding; settings: 5 µM protein, 10 mM NaH2PO4 pH 6.0, 25 mM NaCl, 1 mM β-mercaptoethanol; destabilising, reversible on dialysis
[5] = tested on: FL5.12; experiment: cells; set-up: cytotoxicity / viability IC50 in FL5.12 cells at 48 h; settings: Mus musculus, FL5.12, 48 h

T1 sequence (Q76MZ3 2-589): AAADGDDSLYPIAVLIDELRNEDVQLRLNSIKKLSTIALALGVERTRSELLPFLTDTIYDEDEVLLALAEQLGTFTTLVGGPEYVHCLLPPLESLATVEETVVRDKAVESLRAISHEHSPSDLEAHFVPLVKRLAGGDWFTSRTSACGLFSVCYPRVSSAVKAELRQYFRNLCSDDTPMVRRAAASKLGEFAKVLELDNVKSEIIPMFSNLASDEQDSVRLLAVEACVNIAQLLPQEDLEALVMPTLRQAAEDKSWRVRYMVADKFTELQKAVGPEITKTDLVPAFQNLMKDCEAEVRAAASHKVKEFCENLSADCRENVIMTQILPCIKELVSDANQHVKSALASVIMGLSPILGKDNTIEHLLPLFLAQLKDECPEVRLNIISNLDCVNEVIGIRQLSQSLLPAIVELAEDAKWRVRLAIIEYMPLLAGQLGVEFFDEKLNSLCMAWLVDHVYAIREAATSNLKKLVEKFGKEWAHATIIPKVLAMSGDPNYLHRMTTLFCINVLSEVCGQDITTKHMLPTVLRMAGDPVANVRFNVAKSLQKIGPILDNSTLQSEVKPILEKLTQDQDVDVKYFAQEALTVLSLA

Structure (SMILES) | dTm [1] | dTm [2] | dTm [3] | dTm [4] | IC50 [5] [nM]
CCCCCCCCc1ccc(CCC(N)(CO)CO)cc1 [FTY720] | SH-BC-893, FTY720, and the natural sphingolipid phytosphingosine reduced rather than increased the Tm of both | SH-BC-893, FTY720, and the natural sphingolipid phytosphingosine reduced rather than increased the Tm of both |  |  | 
CCCCCCCCc1ccc([C@H]2CCN[C@@H]2CO)cc1 [SH-BC-893] |  |  | SH-BC-893, FTY720, and the natural sphingolipid phytosphingosine reduced rather than increased the Tm of both | SH-BC-893, FTY720, and the natural sphingolipid phytosphingosine reduced rather than increased the Tm of both | 2000
CCCCCCCCCCCCC/C=C/[C@@H](O)[C@H](CO)N(C)C [dimethylsphingosine] | safingol and dimethylsphingosine (DMS) induced conformational changes in PPP2R1A and KPNB1 | safingol and dimethylsphingosine (DMS) induced conformational changes in PPP2R1A and KPNB1 |  |  | 
CCCCCCCCCCCCCC[C@@H](O)[C@@H](O)[C@@H](N)CO [phytosphingosine] | SH-BC-893, FTY720, and the natural sphingolipid phytosphingosine reduced rather than increased the Tm of both | SH-BC-893, FTY720, and the natural sphingolipid phytosphingosine reduced rather than increased the Tm of both |  |  | 3200
CCCCCCCCCCCCCCC[C@H](O)[C@@H](N)CO [safingol] | safingol and dimethylsphingosine (DMS) induced conformational changes in PPP2R1A and KPNB1 | safingol and dimethylsphingosine (DMS) induced conformational changes in PPP2R1A and KPNB1 |  |  | 
CCCCCCCCCCCCC/C=C/[C@@H](O)[C@@H](N)CO [sphingosine] | sphingosine triggered conformational changes in both PPP2R1A and KPNB1 | sphingosine triggered conformational changes in both PPP2R1A and KPNB1 |  |  | 
